We go through 1 molecule from patent US9115122B2, “Non-ATP dependent inhibitors of extracellular signal-regulated kinase (ERK)” (UNIVERSITY OF MARYLAND, BALTIMORE, priority 2012, dated 2015).

For one test, the target named is ERK2 L198A/L232A (Rattus norvegicus (Rat), UniProt P63086, L198A/L232A). The test is described as follows: Fluorescence quenching (FQ) binding affinity. The settings on record: read-out: KD L198A/L232A (Site 5).
In test [1] the test system is c-Fos, Fra1, and FosB expression. Briefly: Immunoblot of EGF-induced c-Fos, Fra1 and FosB expression in HeLa cells. The format is cell-based. The settings on record: EGF 25 ng/mL. As for the experimental part:
FIG. 3. EGF-mediated induction of AP-1 proteins is inhibited by SF-3-026 and SF-3-030. (a) HeLa cells were treated for 10, 30, or 60 min. with EGF (25 ng/mL) in the presence of 50 μM SF-3-026 or 10 μM U0126. Protein lysates were immunoblotted for c-Fos, Fra1, FosB and FosB2. Phosphorylated ERK1/2 is not affected by SF-3-026 and α-tubulin expression is shown for a protein loading control. (b) Protein lysates from HeLa cells treated for 30 min. with EGF in the absence or presence of 10, 25, 50, or 100 μM of SF-3-026 or SF-3-030 were immunoblotted for c-Fos, Fra1, FosB, FosB2, as well as phosphorylated ERK1/2 and MEK1/2. Total ERK2 and α-tubulin expression are shown for protein loading controls. Data are representative of three independent experiments.
Analysis of protein expression levels, activity, and cell proliferation were done as previously described. […] Proteins were separated by SDS-PAGE, analyzed by immunoblotting, and detected using enhanced chemiluminescence (ECL, GE Healthcare, United Kingdom).
The reported half-life for c-Fos is ˜10 minutes and growth factor-mediated stabilization of c-Fos protein expression can be observed within 30-60 minutes, whereas stabilization of Fra1 protein is delayed due to AP-1 regulation of the Fra1 promoter. Thus, growth factor-mediated induction of c-Fos, Fra1, and FosB expression was evaluated following treatment with SF-3-026. […]
For orientation: In western blotting, separated proteins are transferred to a membrane and probed.

Another test concerns ERK2 vs p38α MAP kinase. Briefly: Selectivity for ERK2 compared to p38α MAP kinase. The format is binding.
In the next test the target is ERK2 wild type (WT) (Rattus norvegicus (Rat), UniProt P63086). Briefly: Fluorescence quenching (FQ) binding affinity. The settings on record: 1 nM to 20 μM test compound.
The target of another test is ERK2 L114A (Rattus norvegicus (Rat), UniProt P63086, L114A). The test is described as follows: Fluorescence quenching (FQ) binding affinity. The conditions noted are these: read-out: KD L114A (Site 2).
A further test concerns the target ERK2 L232A (Rattus norvegicus (Rat), UniProt P63086, L232A). Briefly: Fluorescence quenching (FQ) binding affinity. The settings on record: read-out: KD L232A (Site 5).
A further test has as its target ERK2 L198A/L235A (Rattus norvegicus (Rat), UniProt P63086, L198A/L235A). The test is described as follows: Fluorescence quenching (FQ) binding affinity. The settings on record: read-out: KD L198A/L235A (Site 5).
In test [2] the test system is MEK1-induced AP-1 promoter activity. The test is described as follows: AP-1 promoter luciferase assay, HeLa cells expressing active MEK1 mutant. The format is cell-based. The settings on record: Homo sapiens, 4 hours, read-out: IC50 inhibition of MEK1-induced AP-1 promoter activity. An outline of the steps: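 HeLa transfected with AP-1 luciferase reporter; EGF-stimulated set pretreated 20 min with compound then EGF 25 ng/mL for 4.5 hr, MEK1 set co-transfected with constitutively active MEK1 mutant and compound-treated for final 4 hours. Luciferase normalized to protein, expressed relative to EGF-only or active MEK1-only; mean of three experiments.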

One may read the IC50 as the midpoint of a concentration-inhibition curve.

ERK2 L198A/L232A, sequence (P63086 whole entry L198A/L232A): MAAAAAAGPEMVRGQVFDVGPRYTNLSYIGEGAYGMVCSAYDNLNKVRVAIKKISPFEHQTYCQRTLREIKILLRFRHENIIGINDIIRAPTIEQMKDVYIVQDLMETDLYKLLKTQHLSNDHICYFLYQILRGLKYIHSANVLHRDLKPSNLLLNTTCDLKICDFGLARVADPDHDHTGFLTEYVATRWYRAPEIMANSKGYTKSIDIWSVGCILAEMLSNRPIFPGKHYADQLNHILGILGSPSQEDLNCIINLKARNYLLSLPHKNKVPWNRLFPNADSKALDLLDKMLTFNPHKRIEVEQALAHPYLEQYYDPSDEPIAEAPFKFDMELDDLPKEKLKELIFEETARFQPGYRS
ERK2 L198A/L235A, sequence (P63086 whole entry L198A/L235A): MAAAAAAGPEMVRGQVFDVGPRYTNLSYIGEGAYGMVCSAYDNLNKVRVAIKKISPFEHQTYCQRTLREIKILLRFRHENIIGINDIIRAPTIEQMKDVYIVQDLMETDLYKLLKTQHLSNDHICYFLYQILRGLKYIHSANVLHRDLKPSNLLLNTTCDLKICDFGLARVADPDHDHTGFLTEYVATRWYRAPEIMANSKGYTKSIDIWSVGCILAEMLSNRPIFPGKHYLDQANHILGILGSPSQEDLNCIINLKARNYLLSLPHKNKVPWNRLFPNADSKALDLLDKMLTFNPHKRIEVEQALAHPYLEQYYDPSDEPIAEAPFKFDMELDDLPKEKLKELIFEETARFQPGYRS
ERK2 L232A, sequence (P63086 whole entry L232A): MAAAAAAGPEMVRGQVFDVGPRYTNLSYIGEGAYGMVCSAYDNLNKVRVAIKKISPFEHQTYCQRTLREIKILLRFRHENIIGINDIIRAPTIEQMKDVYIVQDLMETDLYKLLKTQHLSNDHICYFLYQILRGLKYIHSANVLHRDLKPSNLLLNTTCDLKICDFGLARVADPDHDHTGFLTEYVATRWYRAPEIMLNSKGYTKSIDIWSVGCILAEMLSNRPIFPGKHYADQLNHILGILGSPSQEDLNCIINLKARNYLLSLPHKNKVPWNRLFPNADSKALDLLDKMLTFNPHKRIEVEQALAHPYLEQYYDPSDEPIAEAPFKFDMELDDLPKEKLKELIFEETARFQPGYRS
ERK2 wild type (WT), sequence (P63086 whole entry): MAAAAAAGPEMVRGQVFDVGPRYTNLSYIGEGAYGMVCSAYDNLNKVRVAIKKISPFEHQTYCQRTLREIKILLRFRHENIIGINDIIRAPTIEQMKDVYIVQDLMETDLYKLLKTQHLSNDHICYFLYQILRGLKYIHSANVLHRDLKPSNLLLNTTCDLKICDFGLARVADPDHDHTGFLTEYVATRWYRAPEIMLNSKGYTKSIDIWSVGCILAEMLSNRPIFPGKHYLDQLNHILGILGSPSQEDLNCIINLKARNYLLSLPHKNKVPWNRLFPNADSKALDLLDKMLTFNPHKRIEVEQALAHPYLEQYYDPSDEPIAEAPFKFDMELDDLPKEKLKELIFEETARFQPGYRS
ERK2 L114A, sequence (P63086 whole entry L114A): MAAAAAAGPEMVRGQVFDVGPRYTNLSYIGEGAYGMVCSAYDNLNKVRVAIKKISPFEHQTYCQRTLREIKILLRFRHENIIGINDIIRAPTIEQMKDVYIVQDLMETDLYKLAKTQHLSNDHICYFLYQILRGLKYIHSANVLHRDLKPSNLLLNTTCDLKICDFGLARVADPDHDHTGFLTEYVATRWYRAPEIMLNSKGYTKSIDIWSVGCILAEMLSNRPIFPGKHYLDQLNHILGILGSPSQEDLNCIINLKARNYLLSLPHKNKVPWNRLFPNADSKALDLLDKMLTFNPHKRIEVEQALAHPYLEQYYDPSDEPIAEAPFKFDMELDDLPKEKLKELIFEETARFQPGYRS

Take `O=S1(=O)C=CC(OS(=O)(=O)c2ccccc2)C1` (centres unmarked) [SF-3-026]: the Kd at ERK2 L198A/L232A is 140 ± 20 nM; at ERK2 wild type (WT), 130 ± 20 nM; at ERK2 L114A, 27 ± 10 nM; at ERK2 L232A, 130 nM; at ERK2 L198A/L235A, greater than 20000 nM. The “inhibition of EGF-induced c-Fos, Fra1, and FosB expression” value in test [1] was “dramatic inhibition”. Further, the “selectivity for ERK2 as compared to p38α MAP kinase” value in the test with ERK2 vs p38α MAP kinase is listed as roughly 150 fold. Moreover, the IC50 in test [2] was roughly 40000 nM.
